# Source: patent US9238619B2, “Phenalkylamine derivatives, pharmaceutical compositions containing them, and their use in therapy” (AbbVie Deutschland GmbH & Co. KG, priority 2010, dated 2016)
# Biological target: human GlyT1c transporter (Homo sapiens (Human), UniProt P48067)
# Experiment: Radioligand binding assays using recombinant CHO cell membranes expressing human GlyT1
# Conditions: read-out: radioligand binding Kiapp
# Protocol: Radioligand binding to human GlyT1c transporter-expressing membranes was determined as described in Mezler et al., Molecular Pharmacology 74:1705-1715, 2008.
# Chain of human GlyT1c transporter (P48067 whole entry): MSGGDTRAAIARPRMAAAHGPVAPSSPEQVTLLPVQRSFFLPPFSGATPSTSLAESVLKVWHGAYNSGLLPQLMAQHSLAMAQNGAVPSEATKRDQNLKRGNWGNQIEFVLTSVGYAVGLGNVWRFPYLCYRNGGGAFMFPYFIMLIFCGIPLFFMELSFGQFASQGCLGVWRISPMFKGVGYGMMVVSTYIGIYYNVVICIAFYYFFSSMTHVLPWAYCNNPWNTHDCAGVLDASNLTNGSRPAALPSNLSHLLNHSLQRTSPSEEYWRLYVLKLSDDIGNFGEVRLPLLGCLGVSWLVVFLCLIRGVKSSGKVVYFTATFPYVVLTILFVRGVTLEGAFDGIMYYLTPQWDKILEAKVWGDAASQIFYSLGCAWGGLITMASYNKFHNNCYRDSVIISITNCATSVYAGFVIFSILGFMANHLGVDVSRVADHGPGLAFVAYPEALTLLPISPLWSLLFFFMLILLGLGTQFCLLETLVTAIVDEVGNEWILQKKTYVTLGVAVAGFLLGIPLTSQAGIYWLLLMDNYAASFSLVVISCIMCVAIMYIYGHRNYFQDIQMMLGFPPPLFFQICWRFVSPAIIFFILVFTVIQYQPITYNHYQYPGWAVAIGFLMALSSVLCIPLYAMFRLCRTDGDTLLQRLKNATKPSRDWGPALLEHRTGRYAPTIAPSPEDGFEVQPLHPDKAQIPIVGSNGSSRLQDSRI
row,Compound,Ki [nM]
1,"Cn1cc(S(=O)(=O)NCc2cccc(C3(Cc4ccccc4)CCNC3)c2)cn1 (stereo not drawn) [Example 67, 1-Methyl-1H-pyrazole-4-sulfonic acid 3-(3-benzyl-pyrrolidin-3-yl)benzylamide]",≤ 100
2,"O=S(=O)(CC1CC1)NCc1cccc(C2(Cc3ccccc3)CCNC2)c1 (stereo not drawn) [Example 68, N-[3-(3-Benzyl-pyrrolidin-3-yl)-benzyl]-C-cyclopropyl-methanesulfonamide]",≤ 1000
3,"CN1CCC(Cc2ccccc2)(c2cccc(CNS(=O)(=O)c3cnn(C)c3)c2)C1 (stereo not drawn) [Example 69, 1-Methyl-1H-pyrazole-4-sulfonic acid 3-(3-benzyl-1-methyl-pyrrolidin-3-yl)-benzylamide]",≤ 1000
4,"CN1CCC(Cc2ccccc2)(c2cccc(OCCNS(=O)(=O)c3cn(C)cn3)c2)C1 (stereo not drawn) [Example 70, 1-Methyl-1H-imidazole-4-sulfonic acid {2-[3-(3-benzyl-1-methyl-pyrrolidin-3-yl)-phenoxy]-ethyl}-amide]",≤ 100
5,"Cn1cnc(S(=O)(=O)NCCOc2cccc(C3(Cc4ccccc4)CCN(C(=O)C(F)F)C3)c2)c1 (stereo not drawn) [Example 71, 1-Methyl-1H-imidazole-4-sulfonic acid (2-{3-[3-benzyl-1-(2,2-difluoro-acetyl)pyrrolidin-3-yl]-phenoxy}-ethyl)-amide]",≤ 1000
6,"Cn1cnc(S(=O)(=O)NCCOc2cccc(C3(Cc4ccccc4)CN(CCF)C3)c2)c1 [Example 72, 1-Methyl-1H-imidazole-4-sulfonic acid (2-{3-[3-benzyl-1-(2-fluoro-ethyl)azetidin-3-yl]-phenoxy}-ethyl)-amide]",≤ 100
7,"COCCN1CC(Cc2ccccc2)(c2cccc(OCCNS(=O)(=O)c3cn(C)cn3)c2)C1 [Example 73, 1-Methyl-1H-imidazole-4-sulfonic acid (2-{3-[3-benzyl-1-(2-methoxy-ethyl)azetidin-3-yl]-phenoxy}-ethyl)-amide]",≤ 100
8,"CN1CCC(Cc2ccccc2)(c2cccc(OCCN(C)S(=O)(=O)c3cn(C)cn3)c2)C1 (stereo not drawn) [Example 74, 1-Methyl-1H-imidazole-4-sulfonic acid {2-[3-(3-benzyl-1-methyl-pyrrolidin-3-yl)-phenoxy]-ethyl}-methyl-amide]",≤ 1000
9,Cn1cnc(S(=O)(=O)NCCOc2cccc(C3(Cc4ccccc4)CCN(CCF)C3)c2)c1 (stereo not drawn) [Example 75],≤ 100
10,"Cn1cnc(S(=O)(=O)NCCOc2cccc(C3(Cc4ccccc4)CCN(CC(C)(C)C)C3)c2)c1 (stereo not drawn) [Example 76, 1-Methyl-1H-imidazole-4-sulfonic acid (2-{3-[3-benzyl-1-(2,2-dimethylpropyl)-pyrrolidin-3-yl]-phenoxy}-ethyl)-amide]",≤ 100
11,"CC(C)N1CCC(Cc2ccccc2)(c2cccc(OCCNS(=O)(=O)c3cn(C)cn3)c2)C1 (stereo not drawn) [Example 77, 1-Methyl-1H-imidazole-4-sulfonic acid {2-[3-(3-benzyl-1-isopropyl-pyrrolidin-3-yl)-phenoxy]-ethyl}-amide]",≤ 1000
12,"CN1CC(Cc2ccccc2)(c2cccc(OCCNS(=O)(=O)c3cn(C)cn3)c2)C1 [Example 78, 1-Methyl-1H-imidazole-4-sulfonic acid {2-[3-(3-benzyl-1-methyl-azetidin-3-yl)phenoxy]-ethyl}-amide]",≤ 100
